In patent US11147797B2, “Photodynamic therapeutic compounds and photodynamic methods of treatment” (SALT AND LIGHT PHARMACEUTICALS PTY. LTD., priority 2016, dated 2021):

Legend:
[1] = system: binding between Ras and Ras-binding domain (RBD) of Rafl; experiment: Ras pulldown with inhibitor interference (Active Ras PullDown and Detection Kit, Western blot)
From the text: 1.5.1 Ras pulldown with inhibitor interference: Inhibition of compounds on binding between Ras and Ras-binding domain (RBD) of Rafl was firstly analysed using Active Ras PullDown and Detection Kit (Thermofisher Scientific, Catalogue no 16117). The protocol was in accordance with the manual supplied with the kit. Western blot analysis was used to measure the inhibition. The known Inhibitor Kobe0065 was purchased from Focus Biosciences, Australia (www.focusbio.com.au) and used as the positive control.

Ras-Raf binding = experiment: Ras activation ELIZA kit assay (chemiluminescent)
Method: 1.5.2 ELIZA Assay: Another method to detect the inhibition of the Representative Compounds used a Ras activation ELIZA kit (Merck Millipore, Cat no 17-497). The protocol was in accordance with the manual provided with the kit. The inhibition was measured using a Chemiluminescent imaging system. The known inhibitor Kobe0065 was purchased from Focus Biosciences, Australia (www.focusbio.com.au) and used as the positive control.

Absorption spectrum = type: physicochemical; conditions: compound 10 μM; long wavelength range
Method: 1.4 Absorption spectrum: The absorption spectra of the Representative Compounds were acquired. The concentration of compound was 10 μM.

HCT-116 cells = experiment: Cell proliferation assay (Cell Titre-Blue Cell Viability Assay); type: cell-based; conditions: Homo sapiens; HCT-116 colon-cancer cell line; FIG. 9, FIG. 10; read-out: IC50, inhibition of cell growth of HCT-116
Method: 1.8 Cells: Human cell lines were obtained from the NIH cell culture and cultured in media recommended by supplier.
1.9: Cell Proliferation Assays: Cells (2-3000) were seeded in a 96-well plate and cultured in McCoy's 5 containing 10% (vol/vol) FBS in the presence of one of compounds. Viable cell numbers were measured using a fluorometric kit (“Cell Titre-Blue Cell Viability Assay”: Promega Inc, USA). The viable cells convert blue colour dye to red/pink after incubating at 37 degrees with 5% CO2.

Row | IC50 ([1]; estimated from Table 2, read-out: inhibition IC50, Ras pulldown assay) | Ras-Raf inhibition, ELIZA (Ras-Raf binding; 10 uM compound) | Ras-Raf inhibition, ELIZA (Ras-Raf binding; 50 uM compound) | inhibition in Ras activation ELIZA assay compared with Ras pulldown assay (Ras-Raf binding; in words) | absorption band (Absorption spectrum) | IC50 (HCT-116 cells) | Structure (SMILES) | Ras-Raf inhibition, Ras pulldown ([1]; 10 uM compound) | Ras-Raf inhibition, Ras pulldown ([1]; 50 uM compound) | IC50 (Ras-Raf binding; estimated from Table 2, read-out: inhibition IC50, Ras activation ELIZA assay)
1 | 10 to 50 µM | 34.61% | 35.73% | much weaker | – | – | C1=Cc2nc1c(-c1ccncc1)c1ccc([nH]1)c(-c1ccncc1)c1nc(c(-c3ccncc3)c3ccc([nH]3)c2-c2ccncc2)C=C1 [Representative Compound 1] | 0% | 76.5% | –
2 | – | 35.2% | 13.4% | – | 637 nm | 20 to 25 µM | C[n+]1cccc(-c2c3nc(c(-c4ccccc4)c4ccc(cc5nc(c(-c6ccccc6)c6ccc2[nH]6)C=C5)[nH]4)C=C3)c1.[I-] [Representative Compound 10, 3-(10,20-diphenylporphyrin-5-yl)-1-methylpyridin-1-ium iodide] | – | – | –

Row | Structure (SMILES) | IC50 ([1]; estimated from Table 2, read-out: inhibition IC50, Ras pulldown assay) | Ras-Raf inhibition, ELIZA (Ras-Raf binding; 10 uM compound) | Ras-Raf inhibition, ELIZA (Ras-Raf binding; 50 uM compound) | inhibition in Ras activation ELIZA assay compared with Ras pulldown assay (Ras-Raf binding; in words) | absorption band (Absorption spectrum) | IC50 (HCT-116 cells) | Ras-Raf inhibition, Ras pulldown ([1]; 10 uM compound) | Ras-Raf inhibition, Ras pulldown ([1]; 50 uM compound) | IC50 (Ras-Raf binding; estimated from Table 2, read-out: inhibition IC50, Ras activation ELIZA assay)
3 | Cc1ccc(NC(=S)NNc2c([N+](=O)[O-])cc(C(F)(F)F)cc2[N+](=O)[O-])cc1Cl [Kobe0065, reference compound] | – | 66.8% | 73.11% | – | – | – | 0% | 76% | < 10 µM
